The numbers were not newly measured in patent publication US20140080923A1, “STEVIA BASED SWEETENING COMPOSITION” (STEVINOL LTD., priority 2011, published 2014), which cites them from elsewhere.

The conditions of the data set: background statement.

As to `C=C1C[C@@]23CC[C@H]4[C@@](C)(CCC[C@@]4(C)C(=O)O[C@@H]4O[C@H](CO)[C@@H](O)[C@H](O)[C@H]4O)[C@@H]2CC[C@]1(O[C@@H]1O[C@H](CO)[C@@H](O)[C@H](O[C@@H]2O[C@H](CO)[C@@H](O)[C@H](O)[C@H]2O)[C@H]1O[C@@H]1O[C@H](CO)[C@@H](O)[C@H](O)[C@H]1O)C3` [rebaudioside A], the “sweetness compared with sucrose” value is on record as ~300 times sweeter than sucrose.
`C=C1C[C@@]23CC[C@H]4[C@@](C)(CCC[C@@]4(C)C(=O)O[C@@H]4O[C@H](CO)[C@@H](O)[C@H](O)[C@H]4O)[C@@H]2CC[C@]1(O[C@@H]1O[C@H](CO)[C@@H](O)[C@H](O)[C@H]1O[C@@H]1O[C@H](CO)[C@@H](O)[C@H](O)[C@H]1O)C3` [stevioside]: the “sweetness compared with sucrose” value is ~300 times sweeter than sucrose.
